{"source": "patent US20090012152A1", "about": "“Use of Tetramic Acid Derivatives for Controlling Insects from the Genus of the Plane Lice (Sternorrhyncha)” (Bayer CropScience Aktiengesellschaft, priority 2005, published 2009)", "format_in_all_cases": "in vivo", "key": {"[1]": {"test_system": "Quadraspidiotus perniciosus", "assay": "Example 17: apple trees treated against San Jose scale louse", "settings": "43 days after last of two treatments, on shoots, g a.i./ha/m crown height: Dursban 223, I-4 72", "description": "In three replications, four about 18-year-old apple trees of the cultivar “Red Chief” are treated against the San Jose scale louse Quadraspidiotus perniciosus. Two applications are carried out at an interval of 15 days using a motor-operated barrow-mounted sprayer. Here, the active compound Example (I-4) (240 SC) is applied in a tank mix with 0.2% a.i. of rapeseed oil methyl ester (500 EW) at the stated application rate and the commercial standard Dursban (446 EC) is applied at the stated application rate. The application rate is 1500 l of water/ha.\nEvaluation is carried out 43 days after the last treatment by rating the kill on the shoots."}, "[2]": {"test_system": "Selenaspidius articulatus", "assay": "Example 19: orange trees treated against Selenaspidius articulatus", "settings": "100 d after treatment, on leaves, % a.i.: methidathion 0.05, I-9 0.0288, I-4 0.0144", "description": "In three replications, 3-year-old orange trees of the cultivar “Pera natal” are treated against Selenaspidius articulatus. The application is carried out using a motor-operated knapsack sprayer. Here, the active compounds Example (I-9) (240 SC) and Example (I-4) (240 SC) at the stated application rate are tested against the standard methidathion (400 EC) in the stated amounts, applied once. The application rate is 3.3 l of water per tree.\nEvaluation is carried out 100 days after the treatment by rating the kill on the leaves."}, "Dysmicoccus brevipes": {"test_system": "Dysmicoccus brevipes", "assay": "Example 30: pineapple plants treated against Dysmicoccus brevipes", "settings": "nymphs on pineapple plants, g a.i./ha: Confidor OD 140, I-4 75", "description": "In five replications, pineapple plants of the cultivar “MD2” of a height of about 35 cm are treated against Dysmicoccus brevipes. The application is carried out using a motor-operated knapsack sprayer. Here, the active compound Example (I-4) (150 OD) is tested against the commercial standard Confidor OD (240 OD), at the stated application rates. The application rate is 4000 l of water/ha. Both active compounds are sprayed as a tank mix with 500 g of a.i./ha of adjuvant NP-7 and 4 l of a.i./ha of mineral oil.\nEvaluation is carried out 9, 23 and 37 days after the treatment by rating the kill of the nymphs on the plants."}, "Bemisia argentifolii": {"test_system": "Bemisia argentifolii", "assay": "Example 37: cantaloupe melons treated against Bemisia argentifolii", "settings": "nymphs on leaves, g a.i./ha: endosulfan 1120, I-4 48", "description": "In four replications, plots of a size of about 39 m^2 with cantaloupe melons of the cultivar “Western Shipper” are treated against Bemisia argentifolii. The application is carried out using a knapsack sprayer operated with pressurized air. Here, the active compound Example (I-4) (240 SC), in a tank mix with 0.2 a.i. of rapeseed oil methyl ester (500 EW), and the commercial standard endosulfan (360 EC) are tested at the stated application rates. Two applications are carried out at an interval of 16 days. The application rate is 187 l of water/ha.\nEvaluation is carried out 5, 13, 21 and 29 days after the first treatment by rating the kill of the animals (nymphs) on the leaves."}, "Nasonovia ribisnigri": {"test_system": "Nasonovia ribisnigri", "assay": "Example 42: head lettuce treated against Nasonovia ribisnigri", "settings": "on plants, g a.i./ha: Pirimor 150, I-4 48, I-8 42", "description": "In four replications, plots of a size of 5 m^2 with head lettuce are, two weeks after transplantation, treated against Nasonovia ribisnigri. The application is carried out using a knapsack sprayer operated with pressurized air. Here, the active compounds Example (I-4) (240 SC) and Example (I-8) (240 SC) are, in a tank mix with 0.2% a.i. of rapeseed oil methyl ester (500 EW), tested against the commercial standard Pirimor, at the stated application rates. The application rate is 500 l of water/ha.\nEvaluation is carried out 7, 14 and 26 days after the treatment by rating the kill of the animals on the plants."}, "Macrosiphum euphorbiae": {"test_system": "Macrosiphum euphorbiae", "assay": "Example 46: head lettuce treated against Macrosiphum euphorbiae", "settings": "nymphs on plants, g a.i./ha: endosulfan 1120, I-4 48", "description": "In four replications, plots of a size of about 33 m^2 with head lettuce of the cultivar “PIC 714” are treated against Aulacorthum solani, Macrosiphum euphorbiae and Myzus persicae. The application is carried out using a tractor sprayer. Here, the active compound Example (I-4) (240 SC), in a tank mix with 0.2% a.i. of rapeseed oil methyl ester (500 EW), is tested against the commercial standard endosulfan (360 EC), at the stated application rates. The application rate is 187 l of water/ha. Two treatments are carried out, at an interval of 22 days.\nEvaluation is carried out 8, 22, 30 and 40 days after the first treatment by rating the kill of the nymphs on the plants."}, "Myzus persicae [3]": {"test_system": "Myzus persicae", "assay": "Example 53: plum trees treated against Myzus persicae", "settings": "population on shoots, g a.i./ha/m crown height: Actara 33.5, I-4 48", "description": "In four replications, plum trees of the cultivar “Angeleno” of a height of about 2.8 m are treated against Myzus persicae. The application is carried out using a high-pressure sprayer. Here, the active compound Example (I-4) (100 OD), in the stated amount, is tested against the commercial standard Actara (25 WG), at the stated application rate. The application rate is 500 l of water/ha/crown height in m.\nEvaluation is carried out 6, 9, 12, 20 days after the treatment by rating the kill of the population on the shoots."}, "Myzus persicae [4]": {"test_system": "Myzus persicae", "assay": "Example 54: bell pepper plants treated against Myzus persicae", "settings": "on leaves, g a.i./ha: Provado 50, I-4 48", "description": "In four replications, plots of a size of about 8.4 m^2 with 36 11-week-old bell pepper plants of the cultivar “Casea dura ikeda” are treated against Myzus persicae. The application is carried out using a knapsack sprayer operated with pressurized air. Here, the active compound Example (I-4) (240 SC), in a tank mix with 0.2% a.i. of rapeseed oil methyl ester (500 EW), is tested against the commercial standard Provado (200 SC), at the stated application rates. The application rate is 600 l of water/ha. There are three applications, in each case at an interval of 7 d.\nEvaluation is carried out 1, 7, and 14 days after the last treatment by rating the kill of the animals on the leaves."}}, "data": [{"smiles": "CCOC(=O)OC1=C(c2cc(C)ccc2C)C(=O)NC12CCC(OC)CC2", "note": "(stereo not drawn) [Example (I-4)]", "values": [{"measurement": "Kill (%)", "setting": "[1]", "value": 90.4, "unit": "%"}, {"measurement": "Kill (%) 100 d", "setting": "[2]", "value": 70, "unit": "%"}, {"measurement": "Kill (%) 9 days", "setting": "Dysmicoccus brevipes; 9 days after treatment", "value": 80.9, "unit": "%"}, {"measurement": "Kill (%) 23 days", "setting": "Dysmicoccus brevipes; 23 days after treatment", "value": 84.0, "unit": "%"}, {"measurement": "Kill (%) 37 days", "setting": "Dysmicoccus brevipes; 37 days after treatment", "value": 91.3, "unit": "%"}, {"measurement": "Kill (%) 5 d", "setting": "Bemisia argentifolii; 5 d after first of two treatments", "value": 100, "unit": "%"}, {"measurement": "Kill (%) 13 d", "setting": "Bemisia argentifolii; 13 d after first of two treatments", "value": 100, "unit": "%"}, {"measurement": "Kill (%) 21 d", "setting": "Bemisia argentifolii; 21 d after first of two treatments", "value": 98.1, "unit": "%"}, {"measurement": "Kill (%) 29 d", "setting": "Bemisia argentifolii; 29 d after first of two treatments", "value": 90.5, "unit": "%"}, {"measurement": "Kill (%) 7 d", "setting": "Nasonovia ribisnigri; 7 d after treatment", "value": 92.3, "unit": "%"}, {"measurement": "Kill (%) 14 d", "setting": "Nasonovia ribisnigri; 14 d after treatment", "value": 95.7, "unit": "%"}, {"measurement": "Kill (%) 26 d", "setting": "Nasonovia ribisnigri; 26 d after treatment", "value": 95.1, "unit": "%"}, {"measurement": "Kill (%) 8 d", "setting": "Macrosiphum euphorbiae; 8 d after first of two treatments", "value": 95, "unit": "%"}, {"measurement": "Kill (%) 22 d", "setting": "Macrosiphum euphorbiae; 22 d after first of two treatments", "value": 100, "unit": "%"}, {"measurement": "Kill (%) 30 d", "setting": "Macrosiphum euphorbiae; 30 d after first of two treatments", "value": 100, "unit": "%"}, {"measurement": "Kill (%) 40 d", "setting": "Macrosiphum euphorbiae; 40 d after first of two treatments", "value": 96, "unit": "%"}, {"measurement": "Kill (%) 6 d", "setting": "Myzus persicae [3]; 6 d after treatment", "value": 96.4, "unit": "%"}, {"measurement": "Kill (%) 9 d", "setting": "Myzus persicae [3]; 9 d after treatment", "value": 99.7, "unit": "%"}, {"measurement": "Kill (%) 12 d", "setting": "Myzus persicae [3]; 12 d after treatment", "value": 99.8, "unit": "%"}, {"measurement": "Kill (%) 20 d", "setting": "Myzus persicae [3]; 20 d after treatment", "value": 99.9, "unit": "%"}, {"measurement": "Kill (%) 27 d", "setting": "Myzus persicae [3]; 27 d after treatment", "value": 99.9, "unit": "%"}, {"measurement": "Kill (%) 1 d", "setting": "Myzus persicae [4]; 1 d after last of three treatments", "value": 99.1, "unit": "%"}, {"measurement": "Kill (%) 7 d", "setting": "Myzus persicae [4]; 7 d after last of three treatments", "value": 98.5, "unit": "%"}, {"measurement": "Kill (%) 14 d", "setting": "Myzus persicae [4]; 14 d after last of three treatments", "value": 100, "unit": "%"}]}]}
